Assay results from patent publication US10729710B2, “Catecholamine prodrugs for use in the treatment of Parkinson's disease” (H. Lundbeck A/S, priority 2017, dated 2020).
Counter-ions that a name gives are not always drawn.

Columns and labels:
[1] = tested on: male CD rats; assay: Rat locomotor activity (hyperactivity) assay, open field; format: in vivo
Method: In total, 206 male CD rats (Charles River, Germany) weighing 200-250 grams (165-190 grams upon arrival) were used in the study. Animals were housed at a standard temperature (22±1° C.) and in a light-controlled environment (lights on from 7 am to […]) with ad libitum access to food and water. The experiment described below was performed in accordance with the standard operating procedures of Charles River Discovery Research Services Finland Ltd. and in accordance with the national Animal Experiment Board of Finland (Eläinkoelautakunta, ELLA) authority on animal testing.
The test device is a square Plexiglass-arena (measuring 40×40×40 cm), in which the movement paths of the rats are recorded by an activity monitor (Med. Associates Inc.). Before the test period is initiated, rats are habituated to their test cage for 60 minutes. Upon completion of habituation, animals were treated with either compound or vehicle and placed back into the open field apparatus. The main test parameter measured is ambulatory distance (recorded in 5 minute segments). Overall time of measurement after receiving initial treatment was 360 minutes. Total follow up period in the study was 420 min, including 60 min of habituation.

[2] = tested on: hepatocytes from rat; assay: Conversion to compound (I) in rat hepatocytes; format: in vitro ADME; conditions: 1 μg/mL, 37° C., 0.25-60 minutes, FIG. 7a
Method: (§1) The cell concentration at incubation was 1×10^6 viable cells/mL. The incubations were performed in glass tubes at 37° C. with a total incubation volume of 3.5 mL and with duplicate incubations for each test item. The 3.5 mL of hepatocyte suspension was equilibrated for 10 minutes in a water bath set to 37° C. where after the incubations were initiated by adding 3.5 μL of a stock solution of the test item in DMSO (Dimethyl sulfoxide) and gently inverting the tubes. The final solvent concentration in the incubations was 0.1% DMSO. Samples of 600 μL were withdrawn from the incubations at the pre-determined time points of 0.25, 5, 15, 30 and 60 minutes after ensuring homogeneity of hepatocyte suspensions. The withdrawn volume was added to 1 mL Nunc cryo tubes on wet ice containing 60 μL of ice cold ascorbic acid (100 mg/mL) and 30 μL of ice cold 100 mM saccharic acid 1.4-lactone in 0.5 M citric acid. The tubes were mixed and 35 μL of a solution of ice cold 20% formic acid was added. The tubes were mixed thoroughly and stored at −80° C. awaiting analysis. Analysis method and Instrumentation used for analysis of (I) from dosing (Id-ia), (Id-ib), (Id-iia) and (Id-iib), were the one described in Examples 4 and 5 below in the section “Instrumentation used for analysis of compound (I) from dosing of compounds (Ic), (Id-ia), (Id-ib), (Id-iia), (Id-iib), (Id-iab) and (Id-iiab).”
(§2) Analysis method and Instrumentation used for analysis of (I) from dosing (Id-iab) and (Id-iiab) consisted of mixing equal aliquots of the samples and precipitation solution (acetonitrile (MeCN) with 10% methanol (MeOH) and 1% formic acid), followed by centrifugation at 4° C. at 16000 g for 10 minutes. Supernatants were collected and analysed by LC-MS/MS. Mass spectrometer: Waters Acquity—Waters Xevo TQ-MS. Analytical column: Acquity UPLC HSS T3, 100×2.1 mm, 1.8 μm. Mobile phase A: 0.2% formic acid in water. Mobile phase B: 0.2% formic acid in acetonitrile. Gradient run from 95/5% to 60/40 in 5 min. Flow rate 0.3 mL/min. MRM monitoring of (I) in the study samples and in the analytical standards.

[3] = tested on: hepatocytes from human; assay: Conversion to compound (I) in human hepatocytes; format: in vitro ADME; conditions: 1 μg/mL, 37° C., 0.25-60 minutes, FIG. 7b
Method: as §1, §2

Compound	relationship between behavioral effect and plasma concentrations ([1]; (Id-ia) 100 μg/kg p.o. (FIG. 5), apomorphine 3 mg/kg s.c. (FIG. 6))	start of locomotor activity effect post-administration ([1]; (Id-ia) 10 to 300 μg/kg p.o., apomorphine 3 mg/kg s.c., pramipexole 0.3 mg/kg s.c.)	total distance travelled vs vehicle ([1]; FIG. 4, (Id-ia) p.o., apomorphine 3 mg/kg s.c., pramipexole 0.3 mg/kg s.c.)	time until locomotor effect is gone ([1]; apomorphine: post administration, pramipexole: after appearance of effect, (Id-ia): recording ended at 415-minute time point)	conversion to compound (I) in rat hepatocytes [2]	conversion to compound (I) in human hepatocytes [3]
CCCN1CCC[C@@H]2Cc3c(ccc(O)c3O[C@@H]3O[C@H](C(=O)O)[C@@H](O)[C@H](O)[C@H]3O)C[C@H]21 [(Id-ia), (2S,3S,4S,5R,6S)-3,4,5-trihydroxy-6-(((4aR,10aR)-7-hydroxy-1-propyl-1,2,3,4,4a,5,10,10a-octahydrobenzo[g]quinolin-6-yl)oxy)tetrahydro-2H-pyran-2-carboxylic acid]	correlate with the plasma concentrations of compound (I)	~2 h	significantly increased activity	lasting until the end of recording	time dependent conversion to compound (I)	time dependent conversion to compound (I)
CCCN1CCC[C@@H]2Cc3c(ccc(O)c3OS(=O)(=O)O)C[C@H]21 [(Id-iia), (4aR,10aR)-7-hydroxy-1-propyl-1,2,3,4,4a,5,10,10a-octahydrobenzo[g]quinolin-6-yl hydrogen sulfate]	–	–	–	–	time dependent conversion to compound (I)	time dependent conversion to compound (I)
